Experimental findings from the supplement of paper PMC10883282 are described below.

The assay deals with A204. Nature of the assay: relative viability vs DMSO control (72 h) (fraction); higher = more viable cells. The method, boiled down:
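Relative viability is percent growth read by ATPLite and averaged over up to triplicate wells. Sarcoma cells were seeded in 384-well plates to reach 80–90% confluence and given 2.5 µl of serially diluted compound after 24 h, from source plates of 10 mM to 0.0002 mM. Incubation lasted 72 h at 37 °C, 5% CO2, with 0.1% DMSO vehicle and a 5 µM positive control, and the data were rescaled so 1 equals full and 0 equals none.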

± gives the standard deviation of the averaged measurements.

Regarding `CC(C)NC(=O)C1CCC(n2c(NC(=O)c3ccc(F)cc3)nc3ccc(CN4CCC(C(C)(C)O)CC4)cc32)CC1` (centres undefined) [Belizatinib], the relative viability by setting is: (0.00017 µM) 1.1 ± 0.019; (0.00051 µM) 1.11 ± 0.056; (0.00152 µM) 1.11 ± 0.034; (0.00457 µM) 1.08 ± 0.02; (0.01372 µM) 1.092 ± 0.0066; (0.04115 µM) 1.09 ± 0.044. This molecule also had a relative viability (0.1235 µM) of 1.08 ± 0.026; a relative viability (0.3704 µM) of 1.05 ± 0.029; a relative viability (1.111 µM) of 0.984 ± 0.086; a relative viability (3.333 µM) of 0.727 ± 0.019; a relative viability (10 µM) of 0.361 ± 0.069.
Take `C=CC(=O)N1CCC[C@@H](n2nc(-c3ccc(Oc4ccccc4)cc3)c3c(N)ncnc32)C1` [Ibrutinib]: the relative viability worked out at 1.03 ± 0.019 (0.00017 µM); 1.06 ± 0.11 (0.00051 µM); 1.04 ± 0.057 (0.00152 µM); 1.07 ± 0.059 (0.00457 µM); 1.05 ± 0.048 (0.01372 µM); 1.09 ± 0.034 (0.04115 µM). Also, the relative viability (0.1235 µM) was determined as 1.07 ± 0.095; the relative viability (0.3704 µM) stood at 1.07 ± 0.026; the relative viability (1.111 µM) turned out to be 1.008 ± 0.0098; the relative viability (3.333 µM) is 0.939 ± 0.13; the relative viability (10 µM) stood at 0.525 ± 0.026.
In the case of `O=C(Cc1ccc(-c2ccc(OCCN3CCOCC3)cc2)cn1)NCc1ccccc1` [KX2-391], the relative viability by setting is: (0.00017 µM) 1.09 ± 0.031; (0.00051 µM) 1.07 ± 0.042; (0.00152 µM) 1.11 ± 0.04; (0.00457 µM) 1.05 ± 0.033; (0.01372 µM) 1.04 ± 0.084; (0.04115 µM) 0.894 ± 0.072. In addition, the relative viability is, setting by setting: (0.1235 µM) 0.458 ± 0.064; (0.3704 µM) 0.36 ± 0.032; (1.111 µM) 0.341 ± 0.014; (3.333 µM) 0.31 ± 0.02; (10 µM) 0.266 ± 0.0096.
`CC(=O)Nc1cccc(-n2c(=O)n(C3CC3)c(=O)c3c(Nc4ccc(I)cc4F)n(C)c(=O)c(C)c32)c1` [Trametinib] registered a relative viability (0.00017 µM) of 1.08 ± 0.084; a relative viability (0.00051 µM) of 1.08 ± 0.05; a relative viability (0.00152 µM) of 1.09 ± 0.034; a relative viability (0.00457 µM) of 1.08 ± 0.035; a relative viability (0.01372 µM) of 1.04 ± 0.047; a relative viability (0.04115 µM) of 0.977 ± 0.06. The relative viability came out at 0.77 ± 0.071 (0.1235 µM); 0.576 ± 0.024 (0.3704 µM); 0.544 ± 0.022 (1.111 µM); 0.536 ± 0.0082 (3.333 µM); 0.491 ± 0.015 (10 µM).
Consider `COc1cc2nccc(Oc3ccc(NC(=O)Nc4cc(C)on4)c(Cl)c3)c2cc1OC` [Tivozanib], for which the relative viability worked out at 1.1 ± 0.05 (0.00017 µM); 1.07 ± 0.048 (0.00051 µM); 1.09 ± 0.032 (0.00152 µM); 1.08 ± 0.026 (0.00457 µM); 0.998 ± 0.063 (0.01372 µM); 0.712 ± 0.021 (0.04115 µM). In addition, the relative viability reads like this: (0.1235 µM) 0.504 ± 0.038; (0.3704 µM) 0.438 ± 0.025; (1.111 µM) 0.418 ± 0.029; (3.333 µM) 0.348 ± 0.0075; (10 µM) 0.228 ± 0.02.
Consider `COc1cc2c(cc1O)CCN[C@]21CS[C@@H]2c3c(OC(C)=O)c(C)c4c(c3[C@H](COC1=O)N1[C@@H]2[C@H]2c3c(cc(C)c(OC)c3O)C[C@@H]([C@@H]1O)N2C)OCO4` [Trabectedin], for which the relative viability is, setting by setting: (2 pM) 1.08 ± 0.026; (5 pM) 1.06 ± 0.03; (15 pM) 1.05 ± 0.056; (50 pM) 0.979 ± 0.02; (0.00014 µM) 0.84 ± 0.031; (0.00041 µM) 0.399 ± 0.17. The relative viability is, setting by setting: (0.0012 µM) 0.156 ± 0.13; (0.0037 µM) 0.215 ± 0.0065; (0.011 µM) 0.202 ± 0.014; (200 fM) 1.07 ± 0.03; (600 fM) 1.1 ± 0.043.
Take `CNC(=O)c1cc(Oc2ccc(NC(=O)Nc3ccc(Cl)c(C(F)(F)F)c3)c(F)c2)ccn1` [Regorafenib]: the relative viability reads like this: (0.00017 µM) 1.06 ± 0.046; (0.00051 µM) 1.07 ± 0.05; (0.00152 µM) 1.05 ± 0.067; (0.00457 µM) 1.08 ± 0.051; (0.01372 µM) 1.079 ± 0.0072; (0.04115 µM) 1.05 ± 0.032. Also, the relative viability (0.1235 µM) amounted to 0.987 ± 0.06; the relative viability (0.3704 µM) stood at 0.589 ± 0.033; the relative viability (1.111 µM) was 0.434 ± 0.0088; the relative viability (3.333 µM) was determined as 0.305 ± 0.033; the relative viability (10 µM) was found to be 0.219 ± 0.0053.
The molecule `C[C@@H]1CCN(C(=O)CC#N)C[C@@H]1N(C)c1ncnc2[nH]ccc12` [Tofacitinib] registered a relative viability (0.00017 µM) of 1.09 ± 0.031; a relative viability (0.00051 µM) of 1.09 ± 0.014; a relative viability (0.00152 µM) of 1.04 ± 0.046; a relative viability (0.00457 µM) of 1.08 ± 0.023; a relative viability (0.01372 µM) of 1.06 ± 0.064; a relative viability (0.04115 µM) of 1.04 ± 0.094. For the same molecule, the relative viability is, setting by setting: (0.1235 µM) 1.02 ± 0.052; (0.3704 µM) 1.06 ± 0.017; (1.111 µM) 1.04 ± 0.057; (3.333 µM) 1.02 ± 0.014; (10 µM) 0.99 ± 0.033.
On to `COc1cc2c(Oc3ccc4[nH]c(C)cc4c3F)ncnc2cc1OCCCN1CCCC1` [Cediranib], for which the relative viability amounted to 1.086 ± 0.0095 (0.00017 µM); 1.06 ± 0.017 (0.00051 µM); 1.08 ± 0.064 (0.00152 µM); 1.09 ± 0.024 (0.00457 µM); 0.984 ± 0.051 (0.01372 µM); 0.882 ± 0.09 (0.04115 µM). The relative viability by setting is: (0.1235 µM) 0.457 ± 0.0087; (0.3704 µM) 0.336 ± 0.0094; (1.111 µM) 0.251 ± 0.027; (3.333 µM) 0.182 ± 0.0051; (10 µM) 0.00917 ± 0.0011.
